From PubChem BioAssay (NCI) come the findings set out here.

Among the test systems are A549 NSCLC; CCRF-CEM leukemia; COLO 205 colon; DU-145 prostate; HCT-116 colon; IGROV1 ovarian; KM12 colon; MALME-3M melanoma; MCF7 breast; MDA-MB-435; NCI-H460 lung; OVCAR-3 ovarian; SF-268 CNS; SF-295 CNS; SF-539 CNS; SR leukemia; SW-620 colon; A498 renal; LOX IMVI melanoma.
Assay in all cases: growth of human tumour cells (NCI), 48 h

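Method: 48-hour compound exposure of cells in 96-well plates, five concentrations, linear interpolation of endpoints. TGI: total growth inhibition.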

For the molecule `COC(=O)c1c(C)c2c(c(C)c1O)OC(=O)c1c(C)cc(O)c(C=O)c1O2`, the TGI in the experiment on A549 NSCLC, in the experiment with CCRF-CEM leukemia, with COLO 205 colon, with DU-145 prostate, with HCT-116 colon and in the experiment with IGROV1 ovarian was > 100 µM in each case. Moreover, the TGI in the experiment on KM12 colon, with MALME-3M melanoma, in the experiment on MCF7 breast, with MDA-MB-435, with NCI-H460 lung and in the experiment on OVCAR-3 ovarian was > 100 µM in each case. Also, the TGI with SF-268 CNS, with SF-295 CNS, in the experiment on SF-539 CNS, with SR leukemia and with SW-620 colon was > 100 µM in each case.

Regarding `CC(=O)O[C@H]1[C@@H](N2CCCCC2)C[C@H]2[C@@H]3CC=C4C[C@@H](N5CCCC5)CC[C@]4(C)[C@H]3CC[C@@]21C`, the TGI in the experiment on A498 renal, in the experiment with A549 NSCLC, in the experiment on CCRF-CEM leukemia, in the experiment on COLO 205 colon, in the experiment on HCT-116 colon and in the experiment on IGROV1 ovarian was > 100 µM in each case. In addition, the TGI with KM12 colon is > 100 µM; in the experiment with LOX IMVI melanoma it was > 100 µM; in the experiment on MALME-3M melanoma, 52.4 µM; in the experiment on MCF7 breast it was > 100 µM; in the experiment on MDA-MB-435 it was > 100 µM; in the experiment with NCI-H460 lung it was > 100 µM. Besides, the TGI in the experiment with OVCAR-3 ovarian is > 100 µM; with SF-268 CNS it was > 100 µM; with SF-295 CNS, > 100 µM; in the experiment with SF-539 CNS it was 34.5 µM; with SR leukemia, 8.96 µM; in the experiment with SW-620 colon, > 100 µM.

As for `COc1ccc(-n2c(C)nc3ccc(NC4OC(COC(C)=O)C(OC(C)=O)C(OC(C)=O)C4OC(C)=O)cc3c2=O)cc1` (stereo unspecified), the TGI in the experiment with A498 renal is > 100 µM; in the experiment with COLO 205 colon, 49.4 µM; in the experiment on DU-145 prostate, > 100 µM; in the experiment on HCT-116 colon, 46.5 µM; in the experiment with IGROV1 ovarian, > 100 µM; in the experiment on KM12 colon it was > 100 µM. For the same molecule, the TGI in the experiment with LOX IMVI melanoma, in the experiment on MALME-3M melanoma, in the experiment on MCF7 breast, in the experiment on MDA-MB-435, with NCI-H460 lung and in the experiment with OVCAR-3 ovarian was > 100 µM each time. Besides, the TGI with SF-268 CNS, in the experiment with SF-295 CNS, with SR leukemia and in the experiment with SW-620 colon was > 100 µM each time.

As for `COc1cccc(C2c3cc4c(cc3OC(N3CCCC3)C2c2ccccc2)OCO4)c1O` (stereo unspecified), the TGI is 61.4 µM in the experiment on A549 NSCLC; 24.6 µM with CCRF-CEM leukemia; 27.3 µM in the experiment with COLO 205 colon; 90.5 µM with DU-145 prostate; 17.7 µM in the experiment with HCT-116 colon; 47.8 µM in the experiment on IGROV1 ovarian. Moreover, the TGI in the experiment on KM12 colon was found to be 18.7 µM; in the experiment on LOX IMVI melanoma, 46.2 µM; with MCF7 breast, 32.6 µM; in the experiment on MDA-MB-435, 22.8 µM; in the experiment with NCI-H460 lung, 33.7 µM; with OVCAR-3 ovarian, 27.8 µM. Also, the TGI in the experiment with SF-268 CNS is 46.4 µM; with SF-295 CNS it was 30.3 µM; with SF-539 CNS, 21.7 µM; with SR leukemia it was 32.7 µM; in the experiment on SW-620 colon it was 25.4 µM.

As for `Cc1cc(O)c(C(O)c2ccccn2)cc1O` (stereo unspecified), the TGI was > 100 µM with A549 NSCLC; 38.4 µM in the experiment on CCRF-CEM leukemia; 23.4 µM in the experiment on COLO 205 colon; > 100 µM with DU-145 prostate; 31.2 µM in the experiment with HCT-116 colon; > 100 µM with IGROV1 ovarian. In addition, the TGI with KM12 colon was 82.3 µM; in the experiment with LOX IMVI melanoma, 30.8 µM; in the experiment with MALME-3M melanoma, 40.1 µM; in the experiment on MCF7 breast, 43.8 µM; in the experiment with MDA-MB-435 it was 35.3 µM; in the experiment with NCI-H460 lung, > 100 µM. For the same molecule, the TGI was 28.6 µM in the experiment with OVCAR-3 ovarian; > 100 µM with SF-268 CNS; > 100 µM in the experiment on SF-295 CNS; > 100 µM in the experiment with SF-539 CNS; 10.2 µM in the experiment on SR leukemia; 41.1 µM with SW-620 colon.

Consider `Cc1ccccc1-n1c(=O)nc2n(-c3ccc(C(C)(C)C)cc3)c3ccccc3cc-2c1=O`, for which the TGI was 86.6 µM in the experiment with A498 renal; > 100 µM in the experiment with A549 NSCLC; 50.5 µM in the experiment with CCRF-CEM leukemia; 41.6 µM in the experiment on COLO 205 colon; 77.1 µM with DU-145 prostate; 28.8 µM in the experiment with HCT-116 colon. Further, the TGI came out at 64.5 µM in the experiment on IGROV1 ovarian; 29.8 µM with KM12 colon; 30.3 µM in the experiment with LOX IMVI melanoma; 59.9 µM with MCF7 breast; 27.9 µM in the experiment with MDA-MB-435; 28.7 µM with NCI-H460 lung. Besides, the TGI with OVCAR-3 ovarian came out at 40.9 µM; in the experiment on SF-268 CNS it was 83.2 µM; with SF-295 CNS, 53.1 µM; in the experiment on SF-539 CNS it was 36 µM; in the experiment on SR leukemia, 59.7 µM; in the experiment with SW-620 colon it was 33.5 µM.

Turning to `N#Cc1ccc(N=NN2CCCC2)cc1`, the TGI with A498 renal, in the experiment on CCRF-CEM leukemia, in the experiment on COLO 205 colon, in the experiment on DU-145 prostate, in the experiment on HCT-116 colon and in the experiment with IGROV1 ovarian was > 100 µM throughout. Besides, the TGI in the experiment on KM12 colon, with LOX IMVI melanoma, with MCF7 breast, in the experiment with MDA-MB-435, in the experiment on NCI-H460 lung and in the experiment on OVCAR-3 ovarian was > 100 µM each time. Besides, the TGI with SF-268 CNS, with SF-295 CNS, with SF-539 CNS, in the experiment on SR leukemia and with SW-620 colon was > 100 µM throughout.

As to `O=C1CSc2ccnc(=O)n21`, the TGI with A498 renal, with A549 NSCLC, in the experiment with CCRF-CEM leukemia, with COLO 205 colon, in the experiment on DU-145 prostate and with HCT-116 colon was > 100 µM throughout. The TGI in the experiment on IGROV1 ovarian, in the experiment with MALME-3M melanoma, in the experiment on MCF7 breast, in the experiment with MDA-MB-435, in the experiment on NCI-H460 lung and with SF-268 CNS was > 100 µM each time. The TGI in the experiment on SF-539 CNS, in the experiment with SR leukemia and in the experiment on SW-620 colon was > 100 µM in each case.
